Reference: US20250101041A1, “POSITIVE ALLOSTERIC MODULATORS OF THE MUSCARINIC ACETYLCHOLINE RECEPTOR M4” (Vanderbilt University, priority 2022, published 2025)

Experiments:
[1] = patients treated with AChE inhibitors such as tacrine; cited from earlier work
[2] = cited from earlier work
[3] = Alzheimer's disease patients; cited from earlier work
human mAChR M4 = target: T1, human mAChR M4 (Homo sapiens, UniProt P08173); assay: mAChR M4 cell-based functional assay: calcium mobilization (Fluo-4, FDSS), potentiation of EC20 acetylcholine response in hM4-Gqi5 CHO-K1 cells; conditions: human M4
T1 construct: expressed in transfected cells; host or cells: CHO-K1 (American Type Culture Collection), stably expressing hM4 and Gqi5
T1 sequence (P08173 1-479): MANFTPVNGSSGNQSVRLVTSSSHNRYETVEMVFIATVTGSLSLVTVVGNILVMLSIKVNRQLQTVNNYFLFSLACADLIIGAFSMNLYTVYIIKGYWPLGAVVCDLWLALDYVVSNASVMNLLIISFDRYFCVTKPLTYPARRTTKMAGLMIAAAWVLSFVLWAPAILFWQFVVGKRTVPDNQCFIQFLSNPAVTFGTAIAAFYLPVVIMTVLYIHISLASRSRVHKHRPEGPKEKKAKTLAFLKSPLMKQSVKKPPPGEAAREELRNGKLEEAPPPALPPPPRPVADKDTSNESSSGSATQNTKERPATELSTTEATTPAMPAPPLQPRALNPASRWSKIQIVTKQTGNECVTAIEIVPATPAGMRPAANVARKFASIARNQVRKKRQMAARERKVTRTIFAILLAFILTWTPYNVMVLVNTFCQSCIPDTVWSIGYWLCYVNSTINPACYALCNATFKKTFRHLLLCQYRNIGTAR
In short: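 Readout is the fluorescence-ratio rise at 1 Hz on FDSS, with PAM activity taken as concentration-dependent enhancement of the EC20 acetylcholine response, fitted four-parameter for EC50/Emax. hM4-Gqi5 CHO-K1 cells carried Fluo-4 AM dye; test compounds (11 points, 1:3) preceded EC20 acetylcholine additions at 144 s and 230 s.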

Structure (SMILES): Nc1c2c(nc3ccccc13)CCCC2 [tacrine]
- patients with elevated liver transaminases (hepatotoxicity) [1]: about 30%

Structure (SMILES): CCCCCCOc1nsnc1C1=CCCN(C)C1 [xanomeline]
- catalepsy ([2]; animal models): without causing catalepsy
- activity in animal models with similar profiles to known antipsychotic drugs [2]: active
- psychotic behavioral symptoms such as delusions, suspiciousness, vocal outbursts, and hallucinations [3]: reduce psychotic behavioral symptoms
- treatment induced side effects [3]: gastrointestinal effects

Structure (SMILES): Cc1c(N2CCc3ncc(-c4ccc(C(F)(F)F)nc4)cc3C2)nn2c(=O)cc(C(F)F)nc2c1C [Compound 1-93, 2-(difluoromethyl)-8,9-dimethyl-7-(3-(6-(trifluoromethyl)pyridin-3-yl)-7,8-dihydro-1,6-naphthyridin-6(5H)-yl)-4H-pyrimido[1,2-b]pyridazin-4-one]
- Emax at 30 µM (human mAChR M4; CHO-K1, % ACh maximum at 30 μM): 90%
- EC50 (human mAChR M4; potentiation of EC20 acetylcholine response, calcium mobilization): 333 nM
